The source of these data is ChEMBL document CHEMBL1127153, “Synthesis and anti-arthritic activity of a series of 1-aryl-3-dimethylamino-1,4-dihydroisoquinolines” (1993).

Common to all, as to assay type: functional
The subject of assay [1] is Rattus norvegicus. Briefly: The compound was examined for cell accumulation in the rat by pleural exudate model after peroral administration at 12 mg/Kg, activity expressed as percent inhibition. To be noted: po.
The subject of assay [2] is Rattus norvegicus. Nature of the assay: The compound was examined for cell accumulation in the rat by Arthus reaction after peroral administration at 50 mg/Kg, activity expressed as percent inhibition. As to conditions: po.
Assay [3] deals with Rattus norvegicus. Nature of the assay: Antiarthritic activity against rat adjuvant model after peroral administration of 25 mg/Kg of compound, activity expressed as %maximum inhibitory effect on injected paw depth.
Assay [4] concerns Rattus norvegicus. Nature of the assay: The compound was examined for cell accumulation in the rat by polyvinyl sponge model after peroral administration at 25 mg/Kg, activity expressed as percent inhibition. As to conditions: po.
The test system of assay [5] is Rattus norvegicus. Briefly: Antiarthritic activity against rat adjuvant model after peroral administration of 25 mg/Kg of compound, activity expressed as %maximum inhibitory effect on arthritis score.
Assay [6] has as its system Rattus norvegicus. Nature of the assay: The compound was examined for cell accumulation in the rat by polyvinyl sponge model after peroral administration at 10 mg/Kg, activity expressed as percent inhibition. As to conditions: po.
In assay [7] the test system is Rattus norvegicus. Briefly: The compound was examined for cell accumulation in the rat by Arthus reaction after peroral administration at 12.5mg/Kg, activity expressed as percent inhibition. To be noted: po.
The test system of assay [8] is Rattus norvegicus. Briefly: The compound was examined for cell accumulation in the rat by Arthus reaction after peroral administration at 25 mg/Kg, activity expressed as percent inhibition. To be noted: po.
The subject of assay [9] is Rattus norvegicus. Briefly: Antiarthritic activity against rat adjuvant model after peroral administration of 5 mg/Kg of compound, activity expressed as %maximum inhibitory effect on arthritis score.
Assay [10] deals with Rattus norvegicus. Nature of the assay: Antiarthritic activity against rat adjuvant model after peroral administration of 12.5 mg/Kg of compound, activity expressed as %maximum inhibitory effect on injected paw depth.
For assay [11], the system named is Rattus norvegicus. Briefly: Antiarthritic activity against rat adjuvant model after peroral administration of 5 mg/Kg of compound, activity expressed as %maximum inhibitory effect on injected paw depth.
Assay [12] relates to Rattus norvegicus. Briefly: The compound was examined for cell accumulation in the rat by pleural exudate model after peroral administration at 6 mg/Kg, activity expressed as percent inhibition. To be noted: po.
The test system of assay [13] is Rattus norvegicus. Nature of the assay: The compound was examined for cell accumulation in the rat by polyvinyl sponge model after peroral administration at 12.5 mg/Kg, activity expressed as percent inhibition. To be noted: po.
Assay [14] concerns Rattus norvegicus. Briefly: The compound was examined for cell accumulation in the rat by pleural exudate model after oral administration at 25 mg/Kg, activity expressed as percent inhibition.
The subject of assay [15] is Rattus norvegicus. Nature of the assay: The compound was examined for cell accumulation in the rat by pleural exudate model after peroral administration at 12.5 mg/Kg, activity expressed as percent inhibition. To be noted: po.
For assay [16], the system named is Rattus norvegicus. Nature of the assay: Antiarthritic activity against rat adjuvant model after peroral administration of 12.5 mg/Kg of compound, activity expressed as %maximum inhibitory effect on arthritis score.
In assay [17] the test system is Rattus norvegicus. Nature of the assay: Antiarthritic activity against rat adjuvant model after peroral administration of 6 mg/kg of compound, activity expressed as %maximum inhibitory effect on injected paw depth. To be noted: route oral.
Assay [18] concerns Rattus norvegicus. Briefly: Antiarthritic activity against rat adjuvant model after peroral administration of 6 mg/Kg of compound, activity expressed as %maximum inhibitory effect on arthritis score.
Assay [19] has as its system Rattus norvegicus. Nature of the assay: Antiarthritic activity against rat adjuvant model after peroral administration of 25 mg/Kg of compound: activity expressed as %maximum inhibitory effect on arthritis score.
Assay [20] relates to Rattus norvegicus. Briefly: The compound was examined for cell accumulation in the rat by pleural exudate model after peroral administration at 25 mg/Kg, activity expressed as percent inhibition. As to conditions: po.
Assay [21] concerns Rattus norvegicus. Briefly: Antiarthritic activity against rat adjuvant model after peroral administration of 12.5 mg/Kg of compound: activity expressed as %maximum inhibitory effect on arthritis score.
Assay [22] has as its system Rattus norvegicus. Nature of the assay: The compound was examined for cell accumulation in the rat by Arthus reaction after peroral administration at 6.25 mg/Kg, activity expressed as percent inhibition. As to conditions: po.
Assay [23] relates to Rattus norvegicus. Briefly: The compound was examined for cell accumulation in the rat by Arthus reaction after peroral administration at 12.5 mg/Kg, activity expressed as percent inhibition. As to conditions: po.
In assay [24] the test system is Rattus norvegicus. Briefly: Antiarthritic activity against rat adjuvant model after peroral administration of 10 mg/Kg of compound, activity expressed as %maximum inhibitory effect on arthritis score.
Assay [25] deals with Rattus norvegicus. Nature of the assay: The compound was examined for cell accumulation in the rat by polyvinyl sponge model after peroral administration at 5 mg/Kg, activity expressed as percent inhibition. To be noted: po.
In assay [26] the test system is Rattus norvegicus. Nature of the assay: The compound was examined for cell accumulation in the rat by pleural exudate model after peroral administration at 3 mg/Kg, activity expressed as percent inhibition. To be noted: po.
In assay [27] the test system is Rattus norvegicus. Briefly: Antiarthritic activity against rat adjuvant model after peroral administration of 10 mg/Kg of compound, activity expressed as %maximum inhibitory effect on injected paw depth.
Assay [28] deals with Rattus norvegicus. Nature of the assay: Antiarthritic activity against rat adjuvant model after intravenous administration of 25 mg/Kg of compound, activity expressed as %maximum inhibitory effect on injected paw depth.
The test system of assay [29] is Rattus norvegicus. Briefly: Antiarthritic activity against rat adjuvant model after intravenous administration of 50 mg/Kg of compound, activity expressed as %maximum inhibitory effect on arthritis score.
Assay [30] has as its system Rattus norvegicus. Nature of the assay: Antiarthritic activity against rat adjuvant model after intravenous administration of 25 mg/Kg of compound, activity expressed as %maximum inhibitory effect on arthritis score.
Assay [31] relates to Rattus norvegicus. Briefly: Antiarthritic activity against rat adjuvant model after peroral administration of 50 mg/Kg of compound, activity expressed as %maximum inhibitory effect on injected paw depth.

As to `CN(C)C1=NC(c2ccccc2F)c2ccccc2C1.Cl` (stereo not drawn), the inhibition in vivo at 12 mg/kg in the assay on Rattus norvegicus [1] was found to be 33%. Also, testing at 50 mg/kg in the assay on Rattus norvegicus [2] gave an inhibition in vivo of 55%. The Max inhibitory effect with Rattus norvegicus [3] came to 13%; in the assay on Rattus norvegicus [5], 37%. For the same molecule, the inhibition in vivo at 25 mg/kg amounted to 24% with Rattus norvegicus [4] and 44% in the assay with Rattus norvegicus [8]. Further, at 10 mg/kg the inhibition in vivo with Rattus norvegicus [6] was 12%. Also, the inhibition in vivo at 12.5 mg/kg with Rattus norvegicus [7] came to 28%.
For the molecule `CN(C)C1=NC(c2ccc(Cl)cc2)c2ccccc2C1.Cl` (stereo not drawn), the Max inhibitory effect with Rattus norvegicus [9] is on record as 18%; with Rattus norvegicus [10] it was 80%; with Rattus norvegicus [11] it was 30%; in the assay on Rattus norvegicus [16] it was 44%. In addition, the inhibition in vivo at 25 mg/kg was 30% with Rattus norvegicus [4] and 28% with Rattus norvegicus [14]. This molecule also gave an inhibition in vivo at 6 mg/kg in the assay with Rattus norvegicus [12] of 19%. In addition, the figures for the inhibition in vivo at 12.5 mg/kg with Rattus norvegicus [13] and in the assay with Rattus norvegicus [15] were 15% and 21%, respectively.
As for `CN(C)C1=NC(c2ccc(Cl)cc2)c2cc(Cl)ccc2C1.Cl` (stereo not drawn), the Max inhibitory effect in the assay with Rattus norvegicus [3] was 86%; in the assay with Rattus norvegicus [5], 54%; with Rattus norvegicus [17], 36%; in the assay with Rattus norvegicus [18] it was 34%.
Take `CN(C)C1=NC(c2ccc(N)cc2)c2ccccc2C1.Cl` (stereo not drawn): the values for the Max inhibitory effect in the assay with Rattus norvegicus [3] and with Rattus norvegicus [5] were 6% and 9%, respectively.
Take `CN(C)C1=NC(c2ccc(Cl)cc2Cl)c2ccccc2C1.Cl` (stereo not drawn): the Max inhibitory effect with Rattus norvegicus [10] amounted to 44%; in the assay with Rattus norvegicus [16] it was 15%.
`CN(C)C1=NC(c2ccccc2)c2ccccc2C1.Cl` (stereo not drawn): the Max inhibitory effect with Rattus norvegicus [3] is reported as -6%; in the assay on Rattus norvegicus [5], 13%.
Consider `CN(C)C1=NC(c2ccc([N+](=O)[O-])cc2)c2ccccc2C1.Cl` (stereo not drawn), for which the Max inhibitory effect turned out to be 33% in the assay with Rattus norvegicus [10] and 30% in the assay with Rattus norvegicus [16].
For the molecule `CN(C)C1=NC(c2ccc(Cl)cc2)c2ccccc2C1` (stereo not drawn), the Max inhibitory effect with Rattus norvegicus [3] was -1%; with Rattus norvegicus [5], 29%.
For `Cl.Clc1ccc(C2N=C(NCc3ccccc3)Cc3ccccc32)cc1` (stereo not drawn), in that order: 10% and -7%.
On to `Cl.NC1=NC(c2ccc(Cl)cc2)c2ccccc2C1` (stereo not drawn), for which the results for the Max inhibitory effect in the assay on Rattus norvegicus [3] and in the assay on Rattus norvegicus [5] were 0% and -3%, respectively.
Turning to `CN(C)C1=NC(c2ccccc2Cl)c2ccccc2C1.Cl` (stereo not drawn), the Max inhibitory effect amounted to 36% in the assay on Rattus norvegicus [19], 12% in the assay on Rattus norvegicus [10], 30% in the assay on Rattus norvegicus [3] and 10% in the assay on Rattus norvegicus [21]. This molecule also came in with an inhibition in vivo at 50 mg/kg in the assay on Rattus norvegicus [2] of 34%. For the same molecule, the figures for the inhibition in vivo at 25 mg/kg in the assay on Rattus norvegicus [20], with Rattus norvegicus [4] and with Rattus norvegicus [8] were 48%, 19% and 19%, respectively. The same molecule registered an inhibition in vivo at 6 mg/kg in the assay on Rattus norvegicus [12] of 27%. The same molecule came in with an inhibition in vivo at 12.5 mg/kg in the assay on Rattus norvegicus [15] of 28%.
`CN(C)C1=NC(c2cccc(Cl)c2)c2ccccc2C1.Cl` (stereo not drawn) gave an inhibition in vivo at 6.25 mg/kg with Rattus norvegicus [22] of 31%. Further, the inhibition in vivo at 12.5 mg/kg turned out to be 30% with Rattus norvegicus [23] and 41% in the assay on Rattus norvegicus [15]. The Max inhibitory effect in the assay on Rattus norvegicus [24] is given as 29%; in the assay with Rattus norvegicus [3] it was 84%; in the assay with Rattus norvegicus [5] it was 53%; with Rattus norvegicus [27], 32%. Also, the inhibition in vivo at 5 mg/kg in the assay with Rattus norvegicus [25] was 8%. The same molecule registered an inhibition in vivo at 50 mg/kg in the assay with Rattus norvegicus [2] of 42%. In addition, the inhibition in vivo at 3 mg/kg in the assay on Rattus norvegicus [26] was 36%. Further, testing at 6 mg/kg in the assay with Rattus norvegicus [12] gave an inhibition in vivo of 41%. Further, the inhibition in vivo at 10 mg/kg in the assay with Rattus norvegicus [6] turned out to be 35%. The molecule further displayed an inhibition in vivo at 25 mg/kg in the assay with Rattus norvegicus [8] of 29%.
With `Cl.Clc1ccc(C2N=C(N3CCOCC3)Cc3ccccc32)cc1` (stereo not drawn), the Max inhibitory effect with Rattus norvegicus [3] is listed as 7%; in the assay on Rattus norvegicus [5], 5%.
As for `Br.CN(C)C1=NC(c2ccc(Cl)cc2)c2ccc(O)cc2C1` (stereo not drawn), the Max inhibitory effect is listed as 46% with Rattus norvegicus [28], 16% with Rattus norvegicus [29], 44% in the assay with Rattus norvegicus [30] and 5% in the assay with Rattus norvegicus [31]. Also, at 50 mg/kg the inhibition in vivo in the assay with Rattus norvegicus [2] was 18%. This molecule displayed an inhibition in vivo at 25 mg/kg in the assay with Rattus norvegicus [20] of 21%.
For the molecule `COc1ccc2c(c1)CC(N(C)C)=NC2c1ccc(Cl)cc1.Cl` (stereo not drawn), the figures for the Max inhibitory effect with Rattus norvegicus [3] and in the assay with Rattus norvegicus [5] were 0% and 11%, respectively.
